Test results taken from US10233415B1, “Microfluidics cell culture device” (The Regents of the University of California, priority 2013, dated 2019).
Read-outs that look alike come from different tables or passages of the source.

Assays:
[1] = test system: hiPSC-CM derived cardiac tissue (WTC CMs) in the cardiac MPS; experiment: Cardiac MPS beat rate (motion tracking) drug response; type: cell-based, human; details: for effect on beats per minute (BPM): dose response
Source text: A cardiac MPS that incorporates an in vitro 3D model of the human myocardium consisting of aligned CMs derived from hiPS cells was designed, fabricated and characterized with various in and ex situ monitoring tools. […] To characterize the functionality of the cardiac model, a motion tracking method capable of massive parallelization and high throughput analysis based on bright field microscopy as well as a custom made MEA enabling electrophysiological measurements inside the MPS was developed.
As an alternative to MEAs, a computational motion tracking method capable of performing high throughput analysis was developed. The computational motion tracking method analyzed the beating motion of cardiac tissue based on simple bright field movies (FIGS. 6A-C).
Drugs from classes that target a different physiological effect (i.e. ion channel, stimulant) were chosen, and the IC50 or EC50 values were determined.

[2] = test system: LQT3 hiPSC-CM derived cardiac tissue in the MPS; experiment: LQT3 cardiac tissue in the MPS, beat frequency response; type: cell-based, human
Method: When fed continuously the tissue remained viable and functional for more than one month. Healthy and LQTS hiPSC-CM-derived cardiac tissue in the MPS were viable and amenable to continuous monitoring (e.g., MEA) and sampling for over 4 weeks. Beating tissues were created and loaded from multiple iPS cell lines, a disease cell line (LQT3), and the GCaMP6 isogenic reporter cell line.
FIG. 7. […] (B) Time dependent effect of 1 μM Isoproterenol (ISO) on bpm. * p<0.05 vs baseline.

adult human slice = adult human slice contractility; read-out: EC50 for the effect on adult human slice contractility; cited from earlier work

## COc1ccc(CCN(C)CCCC(C#N)(c2ccc(OC)c(OC)c2)C(C)C)cc1OC (stereo not drawn) [Verapamil]
[1]; Homo sapiens, read-out: IC50, dose dependent decrease of beat rate / beats per minute
  IC50: 950 nM
[1]; at high doses
  spontaneous beating: abolished spontaneous beating
[1]; cardiac MPS
  effect on beats per minute (BPM): dose-dependent decrease
[1]; exposure to 1 nM, multiple exposures on the same device
  beat rate: decreased the beat rate

## CC(C)NCC(O)c1ccc(O)c(O)c1 (stereo not drawn) [Isoproterenol]
[1]; Homo sapiens, cardiac MPS, beat rate, read-out: EC50, concentration dependent increase on absolute beating (beats per minute)
  EC50: 315 nM
[1]; cardiac MPS
  effect on beats per minute (BPM): dose-dependent increase
[1]; subsequent exposure to 1 μM, same device, after at least 48 hours wash
  beat rate: increased the beat rate
[2]; 100 nM concentration
  beat frequency: no effect
[2]; 10 min exposure to 1 μM
  beat frequency: approximately doubled
Adult human slice
  EC50: 100 to 200 nM

## COCCc1ccc(OCC(O)CNC(C)C)cc1 (stereo not drawn) [Metoprolol]
[1]; Homo sapiens, cardiac MPS, beat rate, read-out: IC50, dose dependent decrease of beat rate
  IC50: 244000 nM

## Cc1cccc(CCN2CCC(C(=O)c3ccc(NS(C)(=O)=O)cc3)CC2)n1 [E-4031]
[1]; cardiac MPS, beat rate, read-out: IC50, dose dependent decrease of beat rate / beats per minute
  IC50: 392 nM
